Experimental data: patent US11028052B2, “Compounds useful as modulators of TRPM8” (Firmenich Incorporated, priority 2013, dated 2021)
Values after ≈ are worked out from the molar mass of the structure shown.

Columns and labels:
hTRPM8 = target: T1, hTRPM8 (Homo sapiens, UniProt Q7Z2W7); experiment: hTRPM8 cell based agonist assay (section 1.1); conditions: mammalian cell line stably expressing TRPM8
T1 construct: expressed in transfected cells
Description: The present compounds are useful as modulators of TRPM8. The activity of TRPM8 can be readily monitored in cell based assays using fluorescent calcium-sensitive dyes, membrane potential dyes, or sodium-sensitive dyes. The activity of TRPM8 can also be monitored with electrophysiological set-ups, such as patch-clamping and two-electrode voltage clamping. A mammalian cell line derivative which stably expresses TRPM8 was used in biological assays in association with testing the present compounds with cool-tasting or -feeling properties (Servant et al. US 2007/0259354 A1 and references cited therein). Typical compound concentrations tested were 100 μM, 50 μM, 10 μM, 1 μM, and 0.5 μM. The present compounds have shown strong activity as agonists of hTRPM8. Assay results for compounds are illustrated in Table 1 below. Specifically, the Compounds listed in Table 1.1, e.g., Compounds 1.A1 to Compounds 1.A9 are the specific compounds as described herein. For example, Compounds 1.A1 is Example 1.1.

Solubility in LSB = format: physicochemical; conditions: Low Sodium Buffer (LSB), aqueous buffer
panelists = experiment: Sensory study, cooling line scale vs WS-3 (section 1.2); format: in vivo, human
Description: Three typical sensory studies are described below each followed by a table summarizing sensory results of selected compounds of the invention (Tables 1.2 to 1.4).
All samples made with Low Sodium Buffer (LSB) pH ˜7.1 and contain 0.1% ethanol.
Compounds are rated on a 15 point line scale where 45 μM WS-3 (N-Ethyl-p-menthane-3-carboxamide) is ranked as a 5 in cool intensity. In most cases our compounds are tested to determine at what concentration the cooling intensity is equivalent to 45 μM WS-3. In each test, the panelist is presented with a 0 μM control sample, a 45 μM WS-3 control sample and the experimental compound sample and asked to rate the cooling intensity of each sample. Panelists are also asked to rate bitterness. In the table below there was no significant bitterness detected unless otherwise noted. Also, in the table below, n represents the number of tests completed for a given experiment (#panelists×#repetitions).

T1 sequence (Q7Z2W7 whole entry): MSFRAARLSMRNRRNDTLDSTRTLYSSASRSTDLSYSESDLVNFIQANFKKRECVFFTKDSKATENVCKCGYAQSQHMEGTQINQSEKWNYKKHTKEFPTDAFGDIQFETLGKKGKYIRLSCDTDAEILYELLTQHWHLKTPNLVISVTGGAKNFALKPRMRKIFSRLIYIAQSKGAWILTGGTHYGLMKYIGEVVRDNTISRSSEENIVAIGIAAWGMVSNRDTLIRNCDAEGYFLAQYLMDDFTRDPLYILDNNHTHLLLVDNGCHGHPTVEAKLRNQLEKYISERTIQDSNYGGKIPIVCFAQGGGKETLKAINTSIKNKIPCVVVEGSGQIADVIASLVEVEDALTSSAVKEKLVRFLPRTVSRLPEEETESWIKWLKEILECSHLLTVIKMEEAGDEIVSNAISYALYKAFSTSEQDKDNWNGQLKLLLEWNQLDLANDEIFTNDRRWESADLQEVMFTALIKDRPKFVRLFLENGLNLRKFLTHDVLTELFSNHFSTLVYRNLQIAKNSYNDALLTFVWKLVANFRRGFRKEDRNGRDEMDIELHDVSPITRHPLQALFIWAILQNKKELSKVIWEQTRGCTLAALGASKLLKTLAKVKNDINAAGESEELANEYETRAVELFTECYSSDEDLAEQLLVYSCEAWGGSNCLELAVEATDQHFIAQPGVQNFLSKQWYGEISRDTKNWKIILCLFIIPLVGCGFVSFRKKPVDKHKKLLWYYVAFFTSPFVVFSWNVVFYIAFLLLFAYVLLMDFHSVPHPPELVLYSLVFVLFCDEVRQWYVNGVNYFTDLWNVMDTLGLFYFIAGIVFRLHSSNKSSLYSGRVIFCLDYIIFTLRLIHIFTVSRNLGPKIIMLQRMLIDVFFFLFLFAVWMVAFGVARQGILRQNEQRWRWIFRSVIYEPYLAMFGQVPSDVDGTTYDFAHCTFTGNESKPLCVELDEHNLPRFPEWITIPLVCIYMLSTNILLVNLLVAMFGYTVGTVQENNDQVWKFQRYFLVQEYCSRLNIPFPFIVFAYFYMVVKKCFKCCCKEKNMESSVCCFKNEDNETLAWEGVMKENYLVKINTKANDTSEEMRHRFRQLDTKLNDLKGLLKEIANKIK

EC50 (hTRPM8): 34 nM
hTRPM8 EC50 Ratio (hTRPM8): 100.0
solubility (Solubility in LSB): 337 µM (≈ 105 µg/mL)
SMILES: CC1=NN(CC(=O)c2ccccc2)C(=O)C1(C)C1CCCCC1 (centres unmarked) [Example 1.1, 4-cyclohexyl-3,4-dimethyl-1-(2-oxo-2-phenylethyl)-1H-pyrazol-5(4H)-one]
Average Cooling (panelists; Table 1.2, 5 μM, 15 point line scale, n = 30): 4.7
Sensory Results (panelists; compound concentration compared in cooling intensity with 45 uM WS-3, LSB pH ~7.1, 0.1% ethanol): 5 uM~45 uM WS-3
